These results are taken from patent US20240400549A1, “COMPOUNDS AND THEIR USES FOR TREATING NEURODEGENERATIVE DISEASE” (Academia Sinica, priority 2021, published 2024).

In assay [1] the target is T1, endogenous TDP-43 protein (FL-TDP-43) (Mus musculus, UniProt Q921F2).
T1 construct: the level of endogenous TDP-43 protein (FL-TDP-43); endogenous in cells; host or cells: Neuro-2a (mouse neuroblastoma), also transfected with eGFP-C-TDP-43
Kind of assay: Level of endogenous TDP-43 protein (FL-TDP-43) in Neuro-2a cells. To be noted: mock control 0.91±0.07. It is filed as cell-based. The method, then:
Mouse neuroblastoma cell line (Neuro-2a) were cultured in Dulbecco's modified Eagle's medium (DMEM; Gibco) containing 2×10^−3 M glutamine, 10% heat inactivated fetal bovine serum (FBS), and 100 U mL^−1 penicillin-streptomycin (Gibco) at 37° C. in a humidified incubator containing 5% CO2. Alternatively, Neuro-2a cells were cultured in Dulbecco's modified Eagle's medium (DMEM; Invitrogen, Carlsbad, CA, USA) supplemented with 10% heat-inactivated FBS. The cells were incubated in a humidified incubator at 37° C. with 10% CO2. Transfection was performed using T-Pro NTR II (Ji-Feng Biotechnology, Taiwan) following the manufacturer's protocol.
Neuro-2a cells were seeded in a 6-well plate at a concentration of 2×10^5 cells/well and incubated overnight. Once the cells were attached, Neuro-2a cells were transfected with the eGFP-C-TDP-43 plasmid (2.2 μg) using Turbofect transfection reagent (Invitrogen) and treated with or without 5 μM test compound after 2 h transfection. After incubation for another 22 h, the transfected cells were harvested by RIPA buffer containing protease inhibitor (Roche) and sonicated on ice for 10 seconds. […] Aggregated eGFP-C-TDP-43 protein trapped by the CA membranes was determined by immunoblotting. […]
Proteins were separated using 12% Tris-glycine SDS-PAGE. […] The signals were visualized with luminescence (iBright™ FL1000 instrument, Invitrogen). […]

In assay [2] the test system is C-TDP-43 expressed Neuro-2a cells. Kind of assay: AlamarBlue cell viability in C-TDP-43 expressed Neuro-2a cells. Format: cell-based, mouse. To be noted: 5 μM; eGFP-C-TDP-43 overexpressing Neuro-2a cells; mock 0.43±0.04 vs blank control 1±0.03. The method, then: Neuro-2a cells were seeded in a 24-well plate at a concentration of 8×10^4 cells/well and incubated overnight. The attached Neuro-2a cells were then transfected with the eGFP-C-TDP-43 plasmid (1.1 μg) using TurboFect™ transfection reagent (Invitrogen) according to manufacturer's recommendations, and treated with or without 5 μM test compound after 2 h transfection. The cell viability indicator, AlamarBlue (Invitrogen), was added after 42 h of incubation, and the mixture was incubated for another 6 h. […] conditional medium was transferred to a 96-well plate, and cell viability was determined by the increased fluorescence intensity (λex=560 nm, λem=590 nm).
In this example, whether the compounds of formula (I) or (II) could relieve C-TDP-43-mediated cytotoxicity was examined.
(In general: Alamar Blue is a resazurin reagent that responds to reducing activity.)

In assay [3] the test system is YFP—C-TDP-43 transgenic C. elegans. Put plainly: Swimming (thrashing) body bend assay of YFP-C-TDP-43 transgenic C. elegans. Format: in vivo. To be noted: YFP—C-TDP-43 C. elegans, swimming in buffer, 30 seconds. The protocol:
The YFP—C-TDP-43 transgenic strains of C. elegans generated in this study were IW33 [Psnb-l:C-TDP-43219-414-YFP (iwIs22)]. The strains of nematodes were maintained with standard procedure and grown at 20° C. as previously described (Zhang, T. et al. Hum. Mol. Genet. 2011, 20 (10), 1952). For all assays, the transgenic young two-day (80 hours) adults were used. For larvae synchronization, the eggs were isolated by lysing gravid adult worms with freshly prepared bleaching solution (0.5 mL 5 M NaOH with 1 mL bleach) and incubated in S buffer (recipe) for overnight. For drug treatments, compound I-1b and/or DMSO were solely or along with MG132 applied to fresh NGM plates prior to installing the synchronized C. elegans. The body bends of the corresponding treatment in a duration of 30 seconds of the various strains were documented through SMZ800N stereomicroscope equipped with a CCD camera (Nikon). A body bend was counted as the head of C. elegans travels across the mid-body in 1×PBS buffer. Then, the bending videos of C. elegans were analyzed by ImageJ with the wrMTrck plugin (Nussbaum-Krammer, C. I. et al. J. Vis. Exp. 2015, (95), 52321). […]
As YFP—C-TDP-43 readily forms cytosolic aggregates in nervous system, the YFP—C-TDP-43 aggregates both in the neuron processes and neuron bodies of the ventral cord were monitored. […]

T1 sequence (Q921F2 whole entry): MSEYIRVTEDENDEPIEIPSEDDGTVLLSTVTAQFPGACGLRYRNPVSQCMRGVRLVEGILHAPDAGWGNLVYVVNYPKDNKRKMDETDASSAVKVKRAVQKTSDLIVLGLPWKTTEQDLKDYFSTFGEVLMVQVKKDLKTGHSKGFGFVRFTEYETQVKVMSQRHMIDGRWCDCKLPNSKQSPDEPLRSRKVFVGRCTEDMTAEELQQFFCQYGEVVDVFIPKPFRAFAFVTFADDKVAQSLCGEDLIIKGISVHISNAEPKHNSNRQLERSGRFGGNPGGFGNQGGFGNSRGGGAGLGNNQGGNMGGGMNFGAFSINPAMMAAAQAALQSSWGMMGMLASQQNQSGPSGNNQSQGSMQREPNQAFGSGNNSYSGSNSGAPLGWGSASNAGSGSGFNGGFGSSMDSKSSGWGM

In the case of `CN(C)c1ccc(-c2nc3ccc(OCCOCCOCCNc4cccc5c4C(=O)N(C4CCC(=O)NC4=O)C5=O)cc3s2)cc1` (stereo not drawn) [I-1b, 4-((2-(2-(2-((2-(4-(dimethylamino)phenyl)benzo[d]thiazol-6-yl)oxy)ethoxy)ethoxy)ethyl)amino)-2-(2,6-dioxopiperidin-3-yl)isoindoline-1,3-dione], the “level of endogenous TDP-43 protein (FL-TDP-43)” value in assay [1] was 1.11±0.14. For the same compound, the cell viability in assay [2] was found to be 0.56±0.04. Also, the “increase of bending frequency as compared to the DMSO control group” value in assay [3] came out at 28%.
